According to patent US20110178104A1, “Anti-Heparin Compounds” (POLYMEDIX INC., priority 2010, published 2011):
≈ marks a conversion by molar mass, not a printed value. Where “and” joins values, the source holds several entries; their conditions need not be identical. Identical values can stand only once. Like-named read-outs stand apart in the source and are kept apart here.

Experiments:
[1] = system: tinzaparin; assay: FXa amidolytic assay (Example 10), tinzaparin; conditions: read-out: Tinzap FXa EC50
Procedure: (§1) Two μl of test agent are added (range between 0.01 and 23 ug/ml) and incubated for 5 minutes at 23° C. Bovine Factor Xa was added to a final concentration of 0.636 nkat/mL and incubated for a further 10 minutes at 23° C.

[2] = system: fondaparinux; assay: FXa amidolytic assay (Example 10), fondaparinux; conditions: read-out: Fondap FXa EC50
Procedure: as §1

[3] = system: Unfractionated heparin; assay: aPTT clotting assay, UFH 0.4 U/mL in plasma (Example 10); type: biochemical
Procedure: aPTT clotting Assay: Unfractionated heparin was mixed with plasma at a final concentration of 0.4 U/mL (or concentration which increases aPTT time to between 120 and 300 seconds). […] The ACL Elite Hemostasis analyzer (Beckman Coulter™) was used to add aPTT reagent (HemosIL SynthASil) to supplemented plasma. Clotting was initiated by addition of CaCl2 and time to clot was recorded.

[4] = system: UFH; assay: FXa amidolytic assay (Example 10), UFH; conditions: read-out: Heparin FXa uM EC50
Procedure: as §1

[5] = system: enoxaparin; assay: FXa amidolytic assay (Example 10), enoxaparin; conditions: read-out: Enox FXa EC50
Procedure: as §1

[6] = system: isolated human erythrocytes; assay: cells; type: cell-based; conditions: Homo sapiens, Erythrocyte, 1 h, read-out: Hemolysis EC50
Procedure: Hemolysis assay: Cytotoxicity was also evaluated in a hemolysis assay using isolated human erythrocytes. Pooled whole human blood was centrifuged to separate the red blood cells (RBC). The isolated RBCs were rinsed and diluted in Tris-buffered saline (TBS buffer, pH 7.4) to obtain a 0.22% RBC stock suspension. Serial two-fold dilutions of test agent were assayed over a concentration range of 1000 to 0.48 μg/ml with shaking for 1 hour at 37° C. At the conclusion of the incubation time, samples were centrifuged and 30 μl of the supernatant was added to 100 μl H2O. OD405 measurements were read for hemoglobin concentration. The bee venom peptide melittin was used as a positive control. EC50 values were determined using a four parameter logistic equation: Y=Bottom+(Top-Bottom)/(1+10̂((LogEC50-X)*HillSlope)).

[7] = tinzaparin 0.1 ug/ml, human antithrombin, bovine Factor Xa
[8] = fondaparinux 0.02 μg/mL, human antithrombin, bovine Factor Xa
[9] = unfractionated heparin 0.4 U/mL in plasma, aPTT clotting
[10] = UFH 0.03 units/mL, human antithrombin, bovine Factor Xa
[11] = enoxaparin 0.1 ug/ml, human antithrombin, bovine Factor Xa

Structure (SMILES) | EC50 [1, 7] | EC50 [2, 8] | EC50 [3, 9] | EC50 [4, 10] | EC50 [5, 11] | EC50 ([6]; human RBC, 1 hour at 37° C.) | EC50 [1] | EC50 [2] | EC50 [3] | EC50 [4] | EC50 [5] | EC50 [6]
COc1cc(OC)c(C(=O)N[C@H]2CC[C@@H](NC(=O)c3cc(C(=O)N[C@H]4CC[C@@H](N)CC4)c(OC)cc3OC)CC2)cc1C(=O)NCCN [Compound 383] | > 5 µM | > 10 µM | > 10 µM | > 20 µM | > 5 µM |  |  |  |  |  |  | 
COc1cc(OC)c(C(=O)NC2CCN(C(=O)c3cc(C(=O)NCCN)c(OC)cc3OC)CC2)cc1C(=O)O [Compound 385] | > 5 µM | > 10 µM | > 10 µM | > 20 µM | > 5 µM |  |  |  |  |  |  | 
COc1ccc(NC(=O)[C@H](CCCNC(=N)N)NC(=O)c2cc(NC(=O)[C@H](CCCNC(=N)N)NC(=O)c3cc(NC(=O)[C@H](CCCNC(=N)N)NC(=O)c4cc(NC(C)=O)ccc4OC)ccc3OC)ccc2OC)cc1C(=O)N[C@@H](Cc1c[nH]c2ccccc12)C(=O)O [Compound 310] | 0.141 µM | 0.098 µM | > 10 µM | 0.242 µM | 0.119 µM | ~1000 µg/mL (≈ 763 µM) |  |  |  |  |  | 
NCCCC[C@H](NC(=O)c1cccc(NC(=O)[C@H](CCCCN)NC(=O)c2cccc(NC(=O)[C@H](CCCCN)NC(=O)c3cccc(NC(=O)[C@@H](N)CCCCN)c3)c2)c1)C(=O)Nc1cccc(C(N)=O)c1 [Compound 368] | 3.39 µM | > 10 µM | 9.25 µM | 3.69 µM | 11 µM |  |  |  |  |  |  | 
COc1ccc(NC(=O)[C@@H](CCCNC(=N)N)NC(=O)c2cc(NC(=O)[C@@H](CCCNC(N)=O)NC(=O)c3cc(NC(=O)[C@@H](CCCNC(=N)N)NC(=O)c4cc(NC(=O)[C@H](N)CCCNC(N)=O)ccc4OC)ccc3OC)ccc2OC)cc1C(N)=O [Compound 378] |  |  |  |  |  |  | 0.073 µM | 2.33 µM | 2.01 µM | 0.49 µM | 0.11 µM | 
CNCNC(=O)c1cccc(C(=O)N[C@H]2CC[C@H](NC(=O)c3cc(C(=O)N[C@H]4CC[C@H](NC(=O)c5cccc(C(=O)NCCN)c5)CC4)c(OC)cc3OC)CC2)c1 [Compound 366] | > 5 µM | > 10 µM | > 10 µM | 15.5 µM | > 5 µM |  |  |  |  |  |  | 
COc1ccc(NC(=O)[C@H](CCCCN)NC(=O)c2cc(NC(=O)[C@H](CCCCN)NC(=O)c3cc(NC(=O)[C@H](CCCCN)NC(=O)c4cc(NC(=O)[C@H](CCCCN)NC(=O)Cc5ccccc5)ccc4OC)ccc3OC)ccc2OCC(=O)O)cc1C(N)=O [Compound 356] | 0.1 µM | 0.512 µM | 1.89 µM | 0.204 µM | 0.127 µM |  |  |  |  |  |  | > 1000 µg/mL
COc1cc(OC)c(C(=O)N[C@H]2CC[C@@H](NC(=O)c3cc(C(=O)N[C@H]4CC[C@@H](N=C(N(C)C)N(C)C)CC4)c(OC)cc3OC)CC2)cc1C(=O)NCCN [Compound 382] | > 5 µM | > 10 µM | > 10 µM | > 20 µM | > 5 µM |  |  |  |  |  |  | 
COc1ccc(NC(=O)[C@@H](CCCNC(=N)N)NC(=O)c2cc(NC(=O)[C@@H](CCCNC(=N)N)NC(=O)c3cc(NC(=O)[C@@H](CCCNC(N)=O)NC(=O)c4cc(NC(=O)[C@H](N)CCCNC(N)=O)ccc4OC)ccc3OC)ccc2OC)cc1C(N)=O [Compound 374] | 0.114 µM | 1.81 µM | 2.42 µM | 0.677 µM | 0.157 µM |  |  |  |  |  |  | 
COc1ccc(NC(=O)[C@@H](CCCNC(N)=O)NC(=O)c2cc(NC(=O)[C@@H](CCCNC(N)=O)NC(=O)c3cc(NC(=O)[C@@H](CCCNC(=N)N)NC(=O)c4cc(NC(=O)[C@H](N)CCCNC(N)=O)ccc4OC)ccc3OC)ccc2OC)cc1C(N)=O [Compound 372] | 0.15 µM | 0.544 µM | 2.97 µM | > 10 µM | 0.225 µM |  |  |  |  |  |  | 
COc1cc(OC)c(C(=O)NCCNC(=O)c2cc(C(=O)NCCN)c(OC)cc2OC)cc1C(=O)O [Compound 387] | > 5 µM | > 10 µM | > 10 µM | > 20 µM | > 5 µM |  |  |  |  |  |  | 
COc1cc(OC)c(C(=O)N[C@H]2CC[C@H](NC(=O)c3cc(C(=O)N[C@H]4CC[C@H](N=C(N(C)C)N(C)C)CC4)c(OC)cc3OC)CC2)cc1C(N)=O [Compound 389] | 6.73 µM | > 10 µM | > 10 µM | > 10 µM | 5.61 µM |  |  |  |  |  |  | 
COc1ccc(NC(=O)[C@@H](CCCNC(N)=O)NC(=O)c2cc(NC(=O)[C@@H](CCCNC(=N)N)NC(=O)c3cc(NC(=O)[C@@H](CCCNC(=N)N)NC(=O)c4cc(NC(=O)[C@H](N)CCCNC(N)=O)ccc4OC)ccc3OC)ccc2OC)cc1C(N)=O [Compound 377] |  |  |  |  |  |  | 0.092 µM | 1.44 µM | 2.09 µM | 0.66 µM | 0.149 µM | 
COc1cc(OC)c(C(=O)N[C@H]2CC[C@@H](NC(=O)c3cc(C(=O)N[C@H]4CC[C@@H](N=C(N(C)C)N(C)C)CC4)c(OC)cc3OC)CC2)cc1C(N)=O [Compound 388] | > 5 µM | > 10 µM | > 10 µM | > 20 µM | > 5 µM |  |  |  |  |  |  | 
COc1cc(OC)c(C(=O)N[C@H]2CC[C@@H](NC(=O)c3cc(C(=O)NCCN)c(OCCCCCN)cc3OCCCCCN)CC2)cc1C(=O)N[C@H]1CC[C@@H](NC(=O)c2cc(C(=O)NCCN)c(OCCCCCN)cc2OCCCCCN)CC1 [Compound 367] | 0.106 µM | 0.514 µM | 1.27 µM | 0.085 µM | 0.042 µM |  |  |  |  |  |  | 
COc1ccc(NC(=O)[C@@H](CCCNC(N)=O)NC(=O)c2cc(NC(=O)[C@@H](CCCNC(=N)N)NC(=O)c3cc(NC(=O)[C@@H](CCCNC(N)=O)NC(=O)c4cc(NC(=O)[C@H](N)CCCNC(N)=O)ccc4OC)ccc3OC)ccc2OC)cc1C(N)=O [Compound 371] | 0.197 µM | > 10 µM | 3.26 µM | > 10 µM | 0.252 µM |  |  |  |  |  |  | 
COc1ccc(NC(=O)[C@@H](CCCNC(N)=O)NC(=O)c2cc(NC(=O)[C@@H](CCCNC(N)=O)NC(=O)c3cc(NC(=O)[C@@H](CCCNC(=N)N)NC(=O)c4cc(NC(=O)[C@H](N)CCCNC(=N)N)ccc4OC)ccc3OC)ccc2OC)cc1C(N)=O [Compound 375] | 0.076 µM | 1.26 µM | 2.69 µM | 0.681 µM | 0.113 µM |  |  |  |  |  |  | 
COc1ccc(NC(=O)[C@@H](CCCNC(=N)N)NC(=O)c2cc(NC(=O)[C@@H](CCCNC(=N)N)NC(=O)c3cc(NC(=O)[C@@H](CCCNC(N)=O)NC(=O)c4cc(NC(=O)[C@H](N)CCCNC(=N)N)ccc4OC)ccc3OC)ccc2OC)cc1C(N)=O [Compound 219] | 0.187 µM | 0.731 µM | 1.17 µM | 0.153 µM | 0.095 µM |  |  |  |  |  |  | 
COc1cc(OC)c(C(=O)N2CCC(NC(=O)c3cc(C(=O)NC4CCN(C(=O)c5cc(C(=O)NCCN)c(OC)cc5OC)CC4)c(OC)cc3OC)CC2)cc1C(=O)NCCN [Compound 384] | > 5 µM | > 10 µM | > 10 µM | > 20 µM | > 5 µM |  |  |  |  |  |  | 
COc1ccc(C(=O)N[C@@H](CCCCN)C(=O)Nc2ccc(OC)c(C(=O)N[C@@H](CCCCN)C(=O)Nc3ccc(OC)c(C(=O)N[C@@H](CCCCN)C(=O)Nc4ccc(OC)c(C(N)=O)c4)c3)c2)cc1NC(=O)[C@@H](N)CCCCN [Compound 237] | 0.109 µM and 0.121 µM | 3.62 µM and 3.73 µM | 1.14 µM | 0.199 µM | 0.177 µM and 0.341 µM |  |  |  |  |  |  | 
COc1ccc(NC(=O)[C@H](CCCCCN)NC(=O)c2cc(NC(=O)[C@H](CCCCCN)NC(=O)c3cc(NC(=O)[C@H](CCCCCN)NC(=O)c4cc(NC(=O)[C@@H](N)CCCCCN)ccc4OC)ccc3OC)ccc2OC)cc1C(N)=O [Compound 236] | 0.396 µM | > 12.6 µM | 1.93 µM | 0.364 µM | 0.099 µM |  |  |  |  |  |  | 
COc1ccc(NC(=O)[C@@H](CCCNC(=N)N)NC(=O)c2cc(NC(=O)[C@@H](CCCNC(N)=O)NC(=O)c3cc(NC(=O)[C@@H](CCCNC(N)=O)NC(=O)c4cc(NC(=O)[C@H](N)CCCNC(=N)N)ccc4OC)ccc3OC)ccc2OC)cc1C(N)=O [Compound 376] | 0.114 µM | 1.67 µM | 1.89 µM | 0.416 µM | 0.191 µM |  |  |  |  |  |  | 
COc1ccc(NC(=O)[C@@H](CCCNC(=N)N)NC(=O)c2cc(NC(=O)[C@@H](CCCNC(N)=O)NC(=O)c3cc(NC(=O)[C@@H](CCCNC(N)=O)NC(=O)c4cc(NC(=O)[C@H](N)CCCNC(N)=O)ccc4OC)ccc3OC)ccc2OC)cc1C(N)=O [Compound 370] | 0.259 µM | > 10 µM | 1.46 µM | 12.5 µM | 0.463 µM |  |  |  |  |  |  | 
